The source of these data is paper PMC9400670, “Establishing the selective phospholipid membrane coordination, permeation and lysis properties for a series of ‘druggable’ supramolecular self-associating antimicrobial amphiphiles” (Chemical Science, 2022).

The series relates to human intestinal Caco-2 cells. The series is described as follows: Caco-2 permeability assay. Format: in vitro ADME. The procedure: Section 4: DMPK Methods and Further Discussion […]
Caco-2 Permeability studies: The permeability assay for SSA 1-6 and 10 was performed at Cyprotex Discovery Limited (Macclesfield, UK) and analysed at Cancer Research Horizons. SSA 1-6 and 10 were incubated at a final concentration of 10 uM with human intestinal Caco-2 cells at 37°C, 5% CO2 with a relative humidity of 95%. After 120 minutes the apical compartment inserts and the companion plates were separated, and the apical and basolateral samples were transferred. Incubations were conducted in duplicate and the fluorescent membrane integrity marker; Lucifer Yellow was co-incubated with the SSA compounds at the start of the assay. Compounds of known permeability were used as controls and were within acceptance criteria. Further processing is described in:
Sample preparation and liquid chromatography-mass spectrometry analysis.
Sample preparation and liquid chromatography-mass spectrometry analysis: All samples were centrifuged at 3500 rpm at 4°C for 10 min to precipitate protein and enable sampling of supernatant prior to appropriate dilution for liquid chromatography-mass spectrometry (LC-MS/MS analysis). […]
(1.5 µm, 50 x 2.1 mm) at a temperature of 40°C and a binary mobile phase gradient at a flow rate of […]
0.4 mL/min. […]
For the purpose of apparent permeability determination, samples were analysed using a Waters I-Class ultra-high-performance liquid chromatography (UHPLC) system coupled to a Waters Vion mass spectrometer (Waters, Elstree, UK). Separation of analytes was achieved used an Accucore Vanquish C18+ column (1.5 µm, 50 x 2.1 mm) at a temperature of 40°C and a binary mobile phase gradient at a flow rate of 0.4 mL/min. Initial LC conditions for SSA 1-4 comprised 66% solvent A (0.1% formic acid + 5 mM ammonium acetate in water), 33% solvent B (0.1% formic acid + 5 mM ammonium acetate in methanol); this was ramped to 63% B at 1.8 min and 95% B at 1.9 min, held for 0.5 min and then immediately returned to initial conditions and held for the remaining 0.5 min of the method. Initial LC conditions for SSA 5-10 comprised 54% solvent A (0.1% formic acid + 5 mM ammonium acetate in water), 46% solvent B (0.1% formic acid + 5 mM ammonium acetate in methanol); this was ramped to 67% B at 1.8 min and 95% B at 1.9 min, held for 0.5 min and then immediately returned to initial conditions and held for the remaining 0.5 min of the method.
Sample analysis was by electrospray ionisation in negative ion mode. The capillary voltage was 2.5 kV, desolvation gas was 600°C.
For the purpose of PK determination of SSA 5, samples were analysed using a Waters I-Class ultra-high-performance liquid chromatography (UHPLC) system coupled to a Waters Xevo TQ-XS mass spectrometer. Separation of analytes was achieved using an Accucore Vanquish C18+ column (1.5 µm, 50 x 2.1 mm) at a temperature of 40°C and a binary mobile phase gradient at a flow rate of 0.4 mL/min. Initial LC conditions comprised 54% solvent A (0.1% formic acid + 5 mM ammonium acetate in water), 46% solvent B (0.1% formic acid + 5 mM ammonium acetate in methanol); this was ramped to 67% B at 1.8 min and 95% B at 1.9 min, held for 0.5 min and then immediately returned to initial conditions and held for the remaining 0.5 min of the method. Sample analysis was by electrospray ionisation combined with multiple reaction monitoring in negative ion mode. The […]
Mean blood concentration-time profile: Within these studies SSAs 3 and 5 were dosed at 1 mg/kg, to female CD-1 mice (n=9 per SSA) via an intravenous tail vein bolus dose formulation as solutions in 2 % DMSO/98 % water. Blood taken from the mouse tail vein was extracted by protein precipitation.
SSA concentrations were calculated through UPLC-MS/MS techniques, with tolbutamide as the internal standard. The assay met the acceptance criteria with >7 calibration standards within ± 20% of nominal concentration. The lower limit of quantitation was 2 ng/mL for both compounds. PK […]

[1] abbreviates: % SSA recovered from the assay after 2 hours.

Take `O=C(NCS(=O)(=O)O)Nc1ccc(C(F)(F)F)cc1` [SSA 3]: under setting [1], the “Recovery (A-B)” value came to 99% and the “Recovery (B-A)” value was found to be 98%. In addition, under “Caco-2, 10 uM, 120 minutes, n = 2 technical repeats”, the “Papp (B-A)” value was determined as 5.6 ×10⁻⁶ cm/s. Besides, the “Papp (B-A) class” value (Caco-2, in words) is “moderate”.
